Assay results reported in patent US11952349B2, “Anti-cancer nuclear hormone receptor-targeting compounds” (Nuvation Bio Inc., priority 2019, dated 2024).
pIC50: −log10 of the molar value. Read-outs that look alike come from different tables or passages of the source.

Assays:
[1] = target: Human recombinant PARP2 (Homo sapiens, UniProt Q9UGN5); test: RBC HotSpot PARP2 assay (radioisotope-based filter binding); format: biochemical
Protocol: The following methods are for evaluating the in vitro biology properties of the test articles. • a. RBC HotSpot Poly(ADP-ribose) Polymerases 1 (PARP1) and Poly(ADP-ribose) Polymerases 2 (PARP2) Assays: The assay was conducted at Reaction Biology Corporation (RBC; Malvern, PA). The assay principle is radioisotope-based filter binding assay where incorporation of radioisotope-labeled NAD^+ into the substrate captured on filter is detected after washout free NAD^+. Data were analyzed using Excel and GraphPad Prism software for IC50 curve fits. Each assay was conducted with PJ34 as a positive control. PARP1 assay: Human recombinant PARP1 at a final concentration of 2.5 nM was combined with histone H4 (20 μM) and test articles at various concentrations in reaction buffer (50 mM Tris-HCL, pH 8.0, 50 mM NaCl, 10 mM MgCl2, 1 mM DTT, 1% DMSO, and 20 μg/mL activated DNA). The solution was inoculated for 20 min at room temperature and the reaction initiated by adding [adenylate-^32P]-Nicotinamide Adenine Dinucleotide, ^32P-NAD^+ at a final concentration of 10 μM. After incubation for 2 hrs at room temperature, the reaction mixture was filtered and washed with 0.75% phosphoric acid for radioactivity detection. • ii. PARP2 assay: Human recombinant PARP2 at a final concentration of 2.5 nM was combined with histone H3 (20 μM) and test articles at various concentrations in reaction buffer (50 mM Tris-HCL, pH 8.0, 50 mM NaCl, 10 mM MgCl2, 1 mM DTT, 1% DMSO, and 20 μg/mL activated DNA). The solution was inoculated for 20 min at room temperature and the reaction was initiated by adding [adenylate-^32P]-Nicotinamide Adenine Dinucleotide, ^32P-NAD^+ at a final concentration of 10 μM. After incubation for 2 hrs at room temperature, the reaction mixture was filtered and washed with 0.75% phosphoric acid for radioactivity detection. • b. AR binding assay: AR in LNCaP cytosol was used for determining the binding affinity of test articles and the reference compound—progesterone (Sigma, Cat: E2785, St. Louis, MO). IC50 s were determined using 8 concentrations/compound. Cytosol is plated at 200 μg/well (100 μL) into a 96-well conical polypropylene plate (Agilent, Cat: 5042-1385, Santa Clara, CA) and mixed with 3 μL of test compound. After adding 100 μL of ^3H-methyltrienolone (PerkinElmer, Cat: NET590250UC, San Jose, CA), the plate was sealed and shaken at 300 rpm at 4° C. for 24 hours. Post incubation, 100 μL of radioligand adsorption buffer containing 10 mM Tris-HCl, pH 7.4; 1.5 mM EDTA; 1 mM DTT; 0.25% charcoal; 0.0025% dextran was added to individual wells. Plate was shaken for 15 min at 4° C. followed by centrifugation at 3000 rpm for 30 min at 4° C. 150 μL of supernatant is transferred into scint-tube (PerkinElmer, Cat: 6000192) and mixed with 2 mL of Ultima Gold Cocktail (PerkinElmer, Cat: 6013329). Radioactivity is counted using a TriCarb 2910 TR scintillation counter (PerkinElmer). Inhibition of the radioactivity by test articles was calculated using the equation below: % Inhibition=(1−(Assay well−Average_LC)/(Average_HC−Average_LC))×100%. • IC50 values (Table 6) were calculated and graphed using the model “log(inhibitor) vs. response—Variable slope” included in GraphPad Prism 5 (San Diego, CA). The Ki values were further calculated using the equation below where [L] is the radioligand concentration (1 nM) used in this study. Kd value was 0.332 nM. Ki=IC50/(1+[L]/Kd) • c. AR transactivation: Human AR cloned into a CMV vector backbone is used for the transactivation study. HEK-293 cells are plated at 80,000 cells per well of a 24 well plate in DME+5% csFBS. Twenty four hours later, the cells are transfected using Lipofectamine (Invitrogen, Carlsbad, CA) with 0.25 μg GRE-LUC, 0.01 μg CMV-LUC (renilla luciferase) and 25 ng of the AR in OPTIMEM medium. The cells are treated 24 hrs after transfection with various ligands (10^−12 to 10^−5 M final concentrations) and luciferase assay performed 48 hours after transfection. […]

[2] = target: T1, ligand binding domain of the glucocorticoid receptor (Homo sapiens, UniProt P04150); test: GR antagonism assay (HEK293, dexamethasone 1.5 nM, Dual-glo); format: cell-based; conditions: Table 8
T1 construct: expressed in transfected cells
T1 sequence (P04150 524-758 limits assumed): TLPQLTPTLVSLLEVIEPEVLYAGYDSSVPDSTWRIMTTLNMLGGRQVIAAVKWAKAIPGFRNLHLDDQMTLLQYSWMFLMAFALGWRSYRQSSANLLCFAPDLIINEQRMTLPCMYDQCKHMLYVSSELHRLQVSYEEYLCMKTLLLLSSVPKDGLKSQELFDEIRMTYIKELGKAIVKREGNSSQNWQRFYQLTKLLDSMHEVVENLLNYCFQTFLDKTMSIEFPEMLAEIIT
Protocol: GR antagonism assay: To evaluate GR antagonist activity, test compound was added to the assay plate (top dose 5 μM, 4 fold serial dilution, 8 point dose response). HEK293 cells stably expressing the ligand binding domain of the glucocorticoid receptor were seeded at a density of 40000 cells/well in the assay plate. The assay plate was then incubated at 37° C., 5% CO2 for 30 minutes. Dexamethasone was added to the assay plate at 1.5 nM final concentration and the assay plate was incubated at 37° C., 5% CO2 for 20 h. After the incubation period, Dual-glo luciferase reagent was added to the assay plate and mixed at room temperature for 20 minutes on an orbital shaker, before reading out on the EnVision plate reader.

[3] = target: T2, Progesterone Receptor (PR)-LBD (Homo sapiens, UniProt P06401); test: PR coactivator antagonist assay; format: biochemical; conditions: Table 8; 10 nM progesterone; read-out: PR antagonism
T2 sequence (P06401 679-913 limits assumed): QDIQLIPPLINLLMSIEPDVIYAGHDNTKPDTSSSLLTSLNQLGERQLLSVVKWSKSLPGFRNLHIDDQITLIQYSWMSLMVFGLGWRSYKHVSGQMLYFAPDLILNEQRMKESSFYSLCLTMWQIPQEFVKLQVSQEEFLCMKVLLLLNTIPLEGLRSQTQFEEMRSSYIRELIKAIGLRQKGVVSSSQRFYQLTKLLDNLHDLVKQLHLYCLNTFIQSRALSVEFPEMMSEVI
Protocol: PR coactivator antagonist assay: Test compound (Top dose 10 μM, 4 fold serial dilution, 8 point dose response) and/or vehicle was incubated with the 2.5 nM Progesterone Receptor (PR)-LBD and coactivator peptide for 30 minutes at RT. Determination of the amount of complex formed is read spectrofluorimetrically (excitation: 337 nm, emission: 520/490 nm). Test compound-induced inhibition of 10 nM progesterone-induced fluorescence response by 50 percent or more (>50%) indicates receptor antagonist activity.

Chain of Human recombinant PARP2 (Q9UGN5 whole entry): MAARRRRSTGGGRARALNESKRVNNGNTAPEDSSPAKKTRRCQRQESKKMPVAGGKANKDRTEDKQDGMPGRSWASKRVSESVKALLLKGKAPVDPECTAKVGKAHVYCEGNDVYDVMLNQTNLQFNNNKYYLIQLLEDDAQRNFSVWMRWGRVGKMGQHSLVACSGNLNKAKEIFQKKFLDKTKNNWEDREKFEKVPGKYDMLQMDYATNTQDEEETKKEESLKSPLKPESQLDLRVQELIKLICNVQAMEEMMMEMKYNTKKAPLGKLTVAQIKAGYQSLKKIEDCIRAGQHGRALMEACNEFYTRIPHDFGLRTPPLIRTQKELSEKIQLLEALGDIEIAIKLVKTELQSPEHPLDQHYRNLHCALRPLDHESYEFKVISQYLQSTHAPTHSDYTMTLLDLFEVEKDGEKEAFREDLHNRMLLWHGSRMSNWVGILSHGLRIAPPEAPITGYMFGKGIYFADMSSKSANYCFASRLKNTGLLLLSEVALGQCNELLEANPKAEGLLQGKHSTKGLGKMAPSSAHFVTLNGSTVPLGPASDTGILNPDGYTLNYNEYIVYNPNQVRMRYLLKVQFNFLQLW

Row | pIC50 [2] | pIC50 [3] | Structure (SMILES) | pIC50 ([1]; Table 9, read-out: PARP2) | pIC50 ([1]; Table 5, in vitro results, read-out: PARP2 IC50)
1 | – | – | C[C@@]12CCC(=O)C[C@H]1CC[C@H]1[C@H]2CC[C@]2(C)[C@@H]1CC[C@H]2OCCCCCCNC(=O)c1cc(Cc2n[nH]c(=O)c3ccccc23)ccc1F (stereo in doubt) [Compound 1426, N-(6-((5R,8S,9R,10R,13R,14R,17R)-10,13-dimethyl-3-oxohexadecahydro-1H-cyclopenta[a]phenanthren-17-yloxy)hexyl)-2-fluoro-5-((4-oxo-3,4-dihydrophthalazin-1-yl)methyl)benzamide] | 8.00 to 9.00 | –
2 | > 8.00 | > 8.00 | CC#C[C@]1(O)CC[C@H]2[C@@H]3CCC4=CC(=O)CCC4=C3[C@@H](c3ccc(N(C)CCCCCC(=O)N4CCN(C(=O)c5cc(Cc6n[nH]c(=O)c7ccccc67)ccc5F)CC4)cc3)C[C@@]21C [Compound 135, 4-(4-fluoro-3-(4-(6-((4-((8S,11R,13S,14S,17S)-17-hydroxy-13-methyl-3-oxo-17-(prop-1-ynyl)-2,3,6,7,8,11,12,13,14,15,16,17-dodecahydro-1H-cyclopenta[a]phenanthren-11-yl)phenyl)(methyl)amino)hexanoyl)piperazine-1-carbonyl)benzyl)phthalazin-1(2H)-one] | > 9.00 | –
3 | – | – | C[C@]12C[C@H](CCCCCC(=O)N3CCN(C(=O)c4cc(Cc5n[nH]c(=O)c6ccccc56)ccc4F)CC3)C3=C4CCC(=O)C=C4CC[C@H]3[C@@H]1CCC2O (stereo partly drawn) [Compound 138, 4-(4-fluoro-3-(4-(6-((8S,11S,13S,14S)-17-hydroxy-13-methyl-3-oxo-2,3,6,7,8,11,12,13,14,15,16,17-dodecahydro-1H-cyclopenta[a]phenanthren-11-yl)hexanoyl)piperazine-1-carbonyl)benzyl)phthalazin-1(2H)-one] | > 9.00 | –
4 | – | – | Cn1ncnc1C1c2n[nH]c(=O)c3cc(F)cc(c23)N[C@@H]1c1ccc(NC(=O)CCCCCO[C@@H]2CC[C@H]3[C@@H]4CC[C@H]5CCCC[C@]5(C)[C@H]4CC[C@]23C)cc1 (stereo partly drawn) [Compound 1128, 6-((5R,8R,9S,10S,13S,14S,17R)-10,13-dimethylhexadecahydro-1H-cyclopenta[a]phenanthren-17-yloxy)-N-(4-((8S)-5-fluoro-9-(1-methyl-1H-1,2,4-triazol-5-yl)-3-oxo-3,7,8,9-tetrahydro-2H-pyrido[4,3,2-de]phthalazin-8-yl)phenyl)hexanamide] | – | 7.85
5 | > 8.00 | > 8.00 | CC(=O)O[C@]1(C(C)=O)CC[C@H]2[C@@H]3CCC4=CC(=O)CCC4=C3[C@@H](c3ccc(N(C)CCCCCC(=O)N4CCN(C(=O)c5cc(Cc6n[nH]c(=O)c7ccccc67)ccc5F)CC4)cc3)C[C@@]21C [Compound 1378, (8S,11R,13S,14S,17R)-17-acetyl-11-(4-((6-(4-(2-fluoro-5-((4-oxo-3,4-dihydrophthalazin-1-yl)methyl)benzoyl)piperazin-1-yl)-6-oxohexyl)(methyl)amino)phenyl)-13-methyl-3-oxo-2,3,6,7,8,11,12,13,14,15,16,17-dodecahydro-1H-cyclopenta[a]phenanthren-17-yl acetate] | > 9.00 | –
6 | 7.00 to 8.00 | > 8.00 | CC(=O)O[C@]1(C(C)=O)CC[C@H]2[C@@H]3CCC4=CC(=O)CCC4=C3[C@@H](c3ccc(N(C)CCCCCC(=O)NCCOCCOCC(=O)N4CCN(C(=O)c5cc(Cc6n[nH]c(=O)c7ccccc67)ccc5F)CC4)cc3)C[C@@]21C [Compound 1384, (8S,11R,13S,14S,17R)-17-acetyl-11-(4-((6-(2-(2-(2-(4-(2-fluoro-5-((4-oxo-3,4-dihydrophthalazin-1-yl)methyl)benzoyl)piperazin-1-yl)-2-oxoethoxy)ethoxy)ethylamino)-6-oxohexyl)(methyl)amino)phenyl)-13-methyl-3-oxo-2,3,6,7,8,11,12,13,14,15,16,17-dodecahydro-1H-cyclopenta[a]phenanthren-17-yl acetate] | > 9.00 | –
7 | – | – | C[C@]12Cc3cn[nH]c3C[C@@H]1CC[C@@H]1[C@@H]2CC[C@]2(C)[C@@H](OCCCCCC(=O)N3CCN(C(=O)c4cc(Cc5n[nH]c(=O)c6ccccc56)ccc4F)CC3)CC[C@@H]12 [Compound 1394, 4-(3-(4-(6-(((1S,3aS,3bR,5aS,10aS,10bS,12aS)-10a,12a-dimethyl-1,2,3,3a,3b,4,5,5a,6,7,10,10a,10b,11,12,12a-hexadecahydrocyclopenta[5,6]naphtho[1,2-f]indazol-1-yl)oxy)hexanoyl)piperazine-1-carbonyl)-4-fluorobenzyl)phthalazin-1(2H)-one] | 8.00 to 9.00 | –

Row | Structure (SMILES) | pIC50 [2] | pIC50 [3] | pIC50 ([1]; Table 9, read-out: PARP2) | pIC50 ([1]; Table 5, in vitro results, read-out: PARP2 IC50)
8 | C[C@]12CC[C@H]3[C@@H](CCC4=CC(=O)CC[C@@]43C)[C@@H]1CC[C@@H]2C(=O)COCCCCCC(=O)N1CCN(C(=O)c2cc(Cc3n[nH]c(=O)c4ccccc34)ccc2F)CC1 [Compound 1386, 4-(3-(4-(6-(2-((8S,9S,10R,13S,14S,17S)-10,13-dimethyl-3-oxo-2,3,6,7,8,9,10,11,12,13,14,15,16,17-tetradecahydro-1H-cyclopenta[a]phenanthren-17-yl)-2-oxoethoxy)hexanoyl)piperazine-1-carbonyl)-4-fluorobenzyl)phthalazin-1(2H)-one] | 6.00 to 7.00 | < 5.00 | > 9.00 | –
